Experimental data taken from patent US9187472B2 (AbbVie Inc., priority 2012, dated 2015).

Test system: PC3 cells
Assay: NAMPT Cell Proliferation Assay
Assay type: cell-based
Details: Homo sapiens, PC-3, 120 h, 5 days incubation, cell viability by Cell Titer Glo
How it was run: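 IC50 values derive from sigmoidal dose-response fits of percent inhibition of PC3 viability, measured by luminescence after 5 days of compound treatment. Cells (500/well, RPMI containing 10% heat-inactivated FBS) are allowed to attach overnight, and compounds are tested at 10-fold dilutions between 10 μM and 1×10^−5 μM.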

Compound | IC50 [nM]
O=C(NCc1ccc2ncnn2c1)c1ccc(C2CCN(C(=O)C3CCOCC3)CC2)s1 [Example 849, 5-[1-(tetrahydro-2H-pyran-4-ylcarbonyl)piperidin-4-yl]-N-([1,2,4]triazolo[1,5-a]pyridin-6-ylmethyl)thiophene-2-carboxamide] | 63.6
O=C(NCc1ccn2ccnc2c1)c1ccc(C2CCN(C(=O)c3cc(F)ccc3F)CC2)s1 [Example 887, 5-[1-(2,5-difluorobenzoyl)piperidin-4-yl]-N-(imidazo[1,2-a]pyridin-7-ylmethyl)thiophene-2-carboxamide] | 0.214
O=C(NCc1ccn2ccnc2c1)Nc1ccc(C2CCN(C(=O)Cc3c[nH]c4ccccc34)CC2)cc1 [Example 956, 1-(imidazo[1,2-a]pyridin-7-ylmethyl)-3-{4-[1-(1H-indol-3-ylacetyl)piperidin-4-yl]phenyl}urea] | 8.83
CC1(Cn2cc(-c3ccc(C(=O)NCc4ccn5ccnc5c4)s3)cn2)CCN(C(=O)CCOCCOCCOCCOCCN)CC1 [Example 1165, 5-(1-{[1-(15-amino-4,7,10,13-tetraoxapentadecan-1-oyl)-4-methylpiperidin-4-yl]methyl}-1H-pyrazol-4-yl)-N-(imidazo[1,2-a]pyridin-7-ylmethyl)thiophene-2-carboxamide] | 577
CC(C)n1ccc(C(=O)N2CCC(c3ccc(NC(=O)NCc4ccn5ccnc5c4)cc3)CC2)n1 [Example 1011, 1-(imidazo[1,2-a]pyridin-7-ylmethyl)-3-[4-(1-{[1-(propan-2-yl)-1H-pyrazol-3-yl]carbonyl}piperidin-4-yl)phenyl]urea] | 1.97
O=C(NCc1cn2ccnc2cn1)c1ccc(C2CCN(C(=O)c3cc(F)ccc3F)CC2)s1 [Example 830, 5-[1-(2,5-difluorobenzoyl)piperidin-4-yl]-N-(imidazo[1,2-a]pyrazin-6-ylmethyl)thiophene-2-carboxamide] | 0.269
Cc1oc(C(C)C)cc1C(=O)N1CCC(c2ccc(C(=O)NCc3ccn4ccnc4c3)cc2)CC1 [Example 1064, N-(imidazo[1,2-a]pyridin-7-ylmethyl)-4-(1-{[2-methyl-5-(propan-2-yl)furan-3-yl]carbonyl}piperidin-4-yl)benzamide] | 4.12
CCc1c(C(=O)N2CCC(c3ccc(NC(=O)NCc4ccn5ccnc5c4)cc3)CC2)nnn1CC [Example 1128, 1-(4-{1-[(1,5-diethyl-1H-1,2,3-triazol-4-yl)carbonyl]piperidin-4-yl}phenyl)-3-(imidazo[1,2-a]pyridin-7-ylmethyl)urea] | 6.05

More lines, in order of falling IC50, values ahead:

IC50 [nM] | Compound
543 | O=C(NCc1ccn2ccnc2c1)c1ccc(C2CCN(C(=O)c3cnc4c(c3)CCCO4)CC2)cc1 [Example 987, 4-[1-(3,4-dihydro-2H-pyrano[2,3-b]pyridin-6-ylcarbonyl)piperidin-4-yl]-N-(imidazo[1,2-a]pyridin-7-ylmethyl)benzamide]
75.7 | O=C(NCc1ccn2ccnc2c1)c1ccc(C2CCN(C(=O)c3cncc4ccccc34)CC2)cc1 [Example 979, N-(imidazo[1,2-a]pyridin-7-ylmethyl)-4-[1-(isoquinolin-4-ylcarbonyl)piperidin-4-yl]benzamide]
67.2 | O=C(NCc1cn2ccnc2cn1)c1ccc(C2CCN(S(=O)(=O)c3ccccc3)CC2)cc1 [Example 864, N-(imidazo[1,2-a]pyrazin-6-ylmethyl)-4-[1-(phenylsulfonyl)piperidin-4-yl]benzamide]
34.4 | CCc1ccc(C(=O)N2CCC(c3ccc(C(=O)NCc4ccn5ccnc5c4)cc3)CC2)nc1 [Example 1088, 4-{1-[(5-ethylpyridin-2-yl)carbonyl]piperidin-4-yl}-N-(imidazo[1,2-a]pyridin-7-ylmethyl)benzamide]
14.4 | O=C(NCc1ccn2ccnc2c1)c1ccc(C2CCN(C(=O)c3cccnc3Cl)CC2)cc1 [Example 913, 4-{1-[(2-chloropyridin-3-yl)carbonyl]piperidin-4-yl}-N-(imidazo[1,2-a]pyridin-7-ylmethyl)benzamide]
